Literature values in PMC10022191, “Safety, tolerability, pharmacokinetics, and antiviral activity of the novel core protein allosteric modulator ZM-H1505R (Canocapavir) in chronic hepatitis B patients: a randomized multiple-dose escalation trial” (BMC Medicine, 2023).

Conditions: cited from earlier work

SMILES: O=C1CO[C@H](c2cn(-c3ccc(Br)cc3)nc2-c2ccc(F)cc2)N1CCc1ccc2[nH]c(=O)[nH]c2c1 [Canocapavir]
- accumulation rate after multiple administration (healthy subjects): 1.7–2.3
- dose proportionality of mean plasma AUC and Cmax (healthy subjects): increased in a dose-proportional manner
- food effect on drug absorption (healthy subjects): Food had an effect on the drug absorption
- half-life after multiple administration (healthy subjects): 12.2 to 21.7 h
- margin between plasma exposure and anti-HBV activity EC50 in vitro (healthy subjects): 11.2–37.5 fold
- most common AE (healthy subjects): increased ALT
- safety and tolerability in healthy subjects (single doses 25–450 mg, multiple doses 75–300 mg q.d. for 14 days): safe and well tolerated
